Laboratory results from patent US20070275382A1, “Biomarkers for the Efficacy of Somatostatin Analogue Treatment” (priority 2003, published 2007).
*1 amine or outer side, *2 acyl side, *3 side chain or, on linkers, in order; H or OH if unused. Where a SMILES comes first, the peptide text is derived from it. Side-chain parts run from the residue outwards. [ ]: non-standard residue; d: D form. The star is where a group is joined. Ethylenediamine = C(CN[*:2])N[*:1]; Hyp = O=C(O)[CH]1C[CH](O)CN1; Phg = N[CH](C(=O)O)c1ccccc1; CO = O=C([*:1])[*:2]; Bn = c1ccc(C*)cc1

System: Spleen
Assay: Microarray gene expression profiling (HG-U95A), spleen
Assay type: in vivo, cynomolgus monkeys
Method: Origin of tissue and processing. Male and female cynomolgus monkeys received subcutaneously pasireotide (100 μg/animal/day) or the vehicle for 14 days. On day 15, all animals were sacrificed and tissues for RNA extraction were immediately snap-frozen and kept at −80° C. until processing.
RNA expression profiling was conducted by means of the HG-U95A gene expression probe array (Affymetrix; Santa Clara, Calif. USA), containing more than 12,600 probe sets interrogating primarily full-length human genes and also some control probe sets. The experiment was conducted according to the recommendations of the manufacturer. Briefly, total RNA was obtained by acid guanidinium thiocyanate-phenol-chloroform extraction (Trizol®, Invitrogen Life Technologies, San Diego, Calif. USA) from each frozen tissue section. The total RNA was then purified on an affinity resin (Rneasy®, Qiagen) and quantified. Double stranded cDNA was synthesized with a starting amount of approximately 5 μg full-length total RNA using the Superscript® Choice System (Invitrogen Life Technologies, Carlsbad, Calif. USA) in the presence of a T7-(dT)24 DNA oligonucleotide primer. Following synthesis, the cDNA was purified by phenol/chloroform/isoamyl alcohol extraction and ethanol precipitation. The purified cDNA was then transcribed in vitro using the BioArray® High Yield RNA Transcript Labeling Kit (ENZO, Farmingdale, N.Y. USA) in the presence of biotinylated ribonucleotides form biotin labelled cRNA. The labelled cRNA was then purified on an affinity resin (Rneasy®, Qiagen), quantified and fragmented. An amount of approximately 10 μg labelled cRNA was hybridized for 16 hours at 45° C. to an expression probe array. The array was then washed and stained twice with streptavidin-phycoerythrin (Molecular Probes,) using the GeneChip® Fluidics Workstation 400 (Affymetrix, Santa Clara, Calif. USA). The array was then scanned twice using a confocal laser scanner (GeneArray® Scanner, Agilent, Palo Alto, Calif. USA) resulting in one scanned image. This resulting “.dat-file” was processed using the MAS4 program (Affymetrix) into a “.cel-file”. The “.cel file” was captured and loaded into the Affymetrix GeneChip® Laboratory Information Management System (LIMS). The LIMS database is connected to a UNIX Sun Solaris server through a network filing system that allows for the average intensities for all probes cells (CEL file) to be downloaded into an Oracle database (NPGN). Raw data was converted to expression levels using a “target intensity” of 150. The data were evaluated for quality control and loaded in the GeneSpring® software 4.2.4 (Silicon Genetics, Calif. USA) for analysis.
On the human Affymetrix HGU95Av2 chip, probe sets for individual genes contain 20 oligonucleotide pairs, each composed of a “perfect match” 25-mer and a “mismatch” 25-mer differing from the “perfect” match oligonucleotide at a single base. After probe labelling, hybridization, and laser scanning, the expression level was estimated by averaging the differences in signal intensity measured by oligonucleotide pairs of a given probe (AvgDiff value). The fold changes and directions were calculated for selected genes, from the differences of the AvgDiff values between controls and treated.
To identify genes that were impacted by pasireotide, the dataset was initially filtered to exclude in a first wave of analysis, genes whose values were systematically in the lower expression ranges where the experimental noise is high (at least 80 in a number of experiments corresponding to the smallest number of replicas of any experimental point). In a second round of selection a threshold p-value of 0.05 (based on a t-test) identified differences between treated and control based on a two component error model (Global Error Model) and, whenever possible, with a stepdown correction for multi-hypothesis testing (Benjamini and Hochberg false discovery rate). […]

[1] = ↑ increase, treated vs controls
[2] = ↓ decrease, treated vs controls

Q: With `NCCCCC1NC(=O)C(Cc2c[nH]c3ccccc23)NC(=O)C(c2ccccc2)NC(=O)C2CC(OC(=O)NCCN)CN2C(=O)C(Cc2ccccc2)NC(=O)C(Cc2ccc(OCc3ccccc3)cc2)NC1=O` (stereo not drawn) [Pasireotide, cyclo[4-(NH2—C2H4—NH—CO—O)Pro-Phg-DTrp-Lys-Tyr(4-Bzl)-Phe]] (cyclo(F[Hyp]([CO-Ethylenediamine])[Phg]WKY(Bn)); configuration not given here) as the compound, how does the “IGF-1 expression level, AvgDiff (range)” value (0.1 mg/animal/14day) read?
A: The value was 85 (52 to 125).

Q: And the “IGFBP6 expression level, AvgDiff (range)” value (0.1 mg/animal/14day)?
A: The value was 1,043 (853 to 1,155).

Q: And the “SSTR2 expression level, AvgDiff (range)” value (0.1 mg/animal/14day)?
A: Its value is 93 (87 to 95).

Q: And the “ATPase, Na+/K+ transporting, β 1 polypeptide RNA expression fold change” value [1]?
A: The value was “polypeptide ↑ x2.5”.

Q: And the “Arginine vasopressin receptor 1B RNA expression fold change” value [1]?
A: Its value is “receptor 1B ↑ x2”.

Q: What about the “Bcl-2 binding component 3 RNA expression fold change” value [1] of the same compound?
A: The value was “↑ x2.5”.

Q: And the “Ca++ channel, voltage-dependent, α 2/δ subunit 1 RNA expression fold change” value [1]?
A: The value was “subunit 1 ↑ x2”.

Q: And the “Ca++ channel, voltage-dependent, α 2/δ subunit 2 RNA expression fold change” value [1]?
A: Its value is “↑ x1.5”.

Q: And the “Calcium/calmodulin-dependent protein kinase (CaM kinase) II β RNA expression fold change” value [1]?
A: Its value is “II β ↑ x2”.

Q: And the “Calmodulin 1 (phosphorylase kinase, δ) RNA expression fold change” value [1]?
A: The value was “kinase, δ) ↑ x2”.

Q: What about the “Calmodulin 2 (phosphorylase kinase, δ) RNA expression fold change” value [1] of the same compound?
A: The value was “kinase, δ) ↑ x1.5”.

Q: What about the “Caspase 8, apoptosis-related cysteine protease RNA expression fold change” value [1] of the same compound?
A: Its value is “↑ x2.5”.

Q: What about the “Cdk 2 RNA expression fold change” value [1] of the same compound?
A: The value was “Cdk 2 ↑ x1.5”.

Q: What about the “Cdk 5, regulatory subunit 1 (p35) RNA expression fold change” value [1] of the same compound?
A: The value was “↑ x2”.

Q: What about the “Cdk 6 RNA expression fold change” value [1] of the same compound?
A: Its value is “Cdk 6 ↑ x3”.

Q: What about the “Cyclin D2 RNA expression fold change” value [1] of the same compound?
A: The value was “Cyclin D2 ↑ x1.5”.

Q: What about the “Death-associated protein RNA expression fold change” value [1] of the same compound?
A: The value was “↑ x1.5”.

Q: And the “Follistatin-like 1 RNA expression fold change” value [1]?
A: Its value is “↑ x1.5”.

Q: And the “Gastric inhibitory polypeptide receptor RNA expression fold change” value [1]?
A: The value was “receptor ↑ x2”.

Q: And the “HGF activator inhibitor precursor RNA expression fold change” value [1]?
A: Its value is “↑ x1.5”.

Q: What about the “IFN regulatory factor 2 RNA expression fold change” value [1] of the same compound?
A: Its value is “factor 2 ↑ x3.5”.

Q: And the “IFN-inducible RNA-dependent protein kinase RNA expression fold change” value [1]?
A: Its value is “↑ x2.5”.

Q: What about the “IFNγ receptor 2 (IFNγ transducer 1) RNA expression fold change” value [1] of the same compound?
A: Its value is “↑ x1.5”.

Q: What about the “IFNγ responsive transcript RNA expression fold change” value [1] of the same compound?
A: The value was “↑ x2”.

Q: And the “IGF-1 RNA expression fold change” value [1]?
A: The value was “IGF-1 ↑ x1.5”.

Q: What about the “IGFBP6 RNA expression fold change” value [1] of the same compound?
A: Its value is “IGFBP6 ↑ x2.5”.

Q: And the “IL 1 receptor-like 1 RNA expression fold change” value [1]?
A: Its value is “↑ x2”.

Q: And the “IL-8 receptor type B RNA expression fold change” value [1]?
A: Its value is “↑ x1.5”.

Q: And the “IP-4-phosphatase, type 1, isoform b RNA expression fold change” value [1]?
A: The value was “↑ x2”.

Q: And the “K+ large conductance Ca++-activated channel, subfamily M, β member 1 RNA expression fold change” value [1]?
A: The value was “↑ x2.5”.

Q: And the “LTb4 (chemokine receptor-like 1) RNA expression fold change” value [1]?
A: The value was “receptor-like 1) ↑ x3”.

Q: What about the “PDGF, α polypeptide RNA expression fold change” value [1] of the same compound?
A: Its value is “polypeptide ↑ x2.5”.

Q: And the “PDGFR, α polypeptide RNA expression fold change” value [1]?
A: The value was “polypeptide ↑ x1.5”.

Q: What about the “PI-3-kinase, class 2, β polypeptide RNA expression fold change” value [1] of the same compound?
A: The value was “↑ x1.5”.

Q: What about the “PI-3-kinase, class 3 RNA expression fold change” value [1] of the same compound?
A: Its value is “class 3 ↑ x2”.

Q: What about the “PKC, α binding protein RNA expression fold change” value [1] of the same compound?
A: The value was “protein ↑ x2”.

Q: What about the “PLA2 RNA expression fold change” value [1] of the same compound?
A: Its value is “PLA2 ↑ x2”.

Q: And the “Phosphatidylinositol glycan, class B RNA expression fold change” value [1]?
A: The value was “↑ x1.5”.

Q: What about the “Programmed cell death 10 RNA expression fold change” value [1] of the same compound?
A: Its value is “death 10 ↑ x1.5”.

Q: And the “Putative chemokine receptor; GTP-binding protein RNA expression fold change” value [1]?
A: Its value is “binding protein ↑ x2.5”.

Q: What about the “Rb binding protein RNA expression fold change” value [1] of the same compound?
A: The value was “protein ↑ x2”.

Q: What about the “Rb-binding protein 8 RNA expression fold change” value [1] of the same compound?
A: The value was “protein 8 ↑ x1.5”.

Q: What about the “S-phase kinase-associated protein 1A (p19A) RNA expression fold change” value [1] of the same compound?
A: The value was 1A (p19A) ↑ x2.

Q: What about the “SSTR2 RNA expression fold change” value [1] of the same compound?
A: The value was “SSTR2 ↑ x2”.

Q: And the “Solute carrier family 9 (Na+/H+ exchanger) isoform 3 regulatory factor 1 RNA expression fold change” value [1]?
A: Its value is “↑ x10.5”.

Q: What about the “TGF induced protein RNA expression fold change” value [1] of the same compound?
A: Its value is “protein ↑ x1.5”.

Q: And the “TNF (cachectin) RNA expression fold change” value [1]?
A: The value was “↑ x2”.

Q: And the “TNFR superfamily, member 12 RNA expression fold change” value [1]?
A: The value was “member 12 ↑ x1.5”.

Q: What about the “Tumour protein p53-binding protein RNA expression fold change” value [1] of the same compound?
A: Its value is “protein ↑ x1.5”.

Q: And the “VEGF RNA expression fold change” value [1]?
A: Its value is “VEGF ↑ x1.5”.

Q: What about the “Vasodilatator-stimulated phosphoprotein RNA expression fold change” value [1] of the same compound?
A: The value was “phosphoprotein ↑ x2”.

Q: And the “β adrenergic receptor kinase 1 RNA expression fold change” value [1]?
A: The value was “kinase 1 ↑ x3”.

Q: What about the “S-phase kinase-associated protein 1A RNA expression fold change” value (↑ increase, treated vs controls, second listing, without (p19A)) of the same compound?
A: The value was 1A ↑ x2.

Q: What about the “Adrenergic, α-2C-, receptor RNA expression fold change” value [2] of the same compound?
A: The value was “↓ x2”.

Q: And the “Cyclin I RNA expression fold change” value [2]?
A: Its value is “Cyclin I ↓ x1.5”.

Q: And the “Dopamine receptor D4 RNA expression fold change” value [2]?
A: The value was “receptor D4 ↓ x2”.

Q: And the “EGF (β-urogastrone) RNA expression fold change” value [2]?
A: Its value is “urogastrone) ↓ x2”.

Q: What about the “K+ voltage-gated channel, shaker-related subfamily, member 3 RNA expression fold change” value [2] of the same compound?
A: The value was “member 3 ↓ x3”.

Q: And the “Nuclear factor of activated T-cells, cytoplasmic, calcineurin-dependent 1 RNA expression fold change” value [2]?
A: The value was “dependent 1 ↓ x5”.

Q: And the “PI-3-kinase, catalytic, α polypeptide RNA expression fold change” value [2]?
A: The value was “polypeptide ↓ x2.5”.

Q: What about the “PTHR 1 RNA expression fold change” value [2] of the same compound?
A: Its value is “PTHR 1 ↓ x2.5”.

Q: And the “TGFβ receptor III (betaglycan, 300 kD) RNA expression fold change” value [2]?
A: The value was 300 kD) ↓ x1.5.
